The results in this text go back to patent US10399932B2, “Inhibitors of indoleamine-2,3-dioxygenase for the treatment of cancer” (BRISTOL-MYERS SQUIBB COMPANY, priority 2015, dated 2019).

Chain of human IDO1 (P14902 whole entry): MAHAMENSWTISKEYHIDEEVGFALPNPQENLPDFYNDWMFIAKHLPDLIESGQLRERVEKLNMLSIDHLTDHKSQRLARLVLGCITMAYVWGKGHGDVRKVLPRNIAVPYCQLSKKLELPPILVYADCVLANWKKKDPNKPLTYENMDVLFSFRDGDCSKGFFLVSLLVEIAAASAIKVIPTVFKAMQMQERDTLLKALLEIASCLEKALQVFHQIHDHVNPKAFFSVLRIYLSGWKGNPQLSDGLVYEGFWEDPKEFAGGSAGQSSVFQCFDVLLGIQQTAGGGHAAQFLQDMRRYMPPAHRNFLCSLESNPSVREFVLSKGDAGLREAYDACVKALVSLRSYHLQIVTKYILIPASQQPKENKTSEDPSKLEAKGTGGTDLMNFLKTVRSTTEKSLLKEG

The test deals with human IDO1 (Homo sapiens, UniProt P14902). The experiment in a line: Assessment of human IDO-1 inhibitory activity in HEK cells (human IDO1/HEK293 cells, Ehrlich reagent, absorbance at 490 nm). Format: cell-based. Set-up: expressed in transfected cells. As to conditions: In Vitro Potency in the HEK Human IDO-1 Cellular Assay. In short, it runs like this:
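Stable human IDO1-expressing HEK293 cells treated with compound for 20 h at 37 °C in phenol red-free RPMI/10% FBS. Stopped with 0.2% TCA (final) and heated 30 min at 50 °C; supernatant mixed with Ehrlich reagent, absorbance read at 490 nm. IC50 normalised to DMSO (0%) and 500 nM reference standard (100% inhibition).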
Molecule `CCN(c1ccc([C@@H](COC)CC(=O)O)cc1Nc1ccc2c(c1)OC(F)(F)O2)C1CCOCC1` (single isomer, unassigned) [Example 378] yielded an IC50 of less than 50 nM.
To `CCOc1ccc(NC(=O)Nc2cc(C(COC)CC(=O)O)cc(F)c2N(CC(C)C)C2CCCCC2)c(F)c1` (single isomer, unassigned) [Example 1165, 3-(4-(cyclohexyl(isobutyl)amino)-3-(3-(4-ethoxy-2-fluorophenyl)ureido)-5-fluorophenyl)-4-methoxybutanoic acid] belongs less than 5 nM; to `CCC(CC(=O)O)c1cc(NC(=O)Nc2ccc(C)cc2)c(N(CC(C)C)C2CCCCC2)cc1F` (single isomer, unassigned) [Example 1107, 3-(4-(Cyclohexyl(isobutyl)amino)-2-fluoro-5-(3-(p-tolyl)ureido)phenyl)pentanoic acid], less than 5 nM; to `CCc1ccc(Nc2cc([C@@H](CC)CC(=O)O)ccc2N(CC(C)(C)O)C2CCCCC2)cc1` (single isomer, unassigned) [Example 228], less than 5 nM.
Molecule `Cc1ccc(CC(=O)Nc2cc(C(CC(=O)O)C(C)C)ccc2N(C)C(C)(C)C)cc1` (single isomer, unassigned) [Example 1007-2] showed an IC50 greater than 50 nM.
Molecule `CCOc1ccc(CC(=O)Nc2cc(C(CC(=O)O)C3CC3)ccc2N(CC(C)C)C2CCCCC2)cc1` (single isomer, unassigned) [Example 1250, 3-(4-(Cyclohexyl(isobutyl)amino)-3-(2-(4-ethoxyphenyl)acetamido)phenyl)-3-cyclopropylpropanoic acid] showed a concentration for half-maximal inhibition (IC50) of less than 5 nM.
To `Cc1ccc(NC(=O)Nc2cc(C(CC(=O)O)C3CC3)ccc2N(CC(C)C)C2CCOCC2)cc1` (single isomer, unassigned) [1202 E1] belongs less than 5 nM.
Regarding `CCC(CC(=O)O)c1cc(F)c(N(CC(C)C)CC(C)C)c(Nc2cnc(OC)nc2)c1` (single isomer, unassigned) [Example 120, 3-(4-(diisobutylamino)-3-fluoro-5-((2-methoxypyrimidin-5-yl)amino)phenyl) pentanoic acid], the 50% inhibitory concentration (IC50) was less than 5 nM.
In the case of `CCC(CC(=O)O)c1ccc(N2CCOC[C@H]2C(C)C)c(NC(=O)Nc2ccc(Cl)cc2F)c1` (single isomer, unassigned) [Example 908], the IC50 was less than 50 nM.
To `CCC(CC(=O)O)c1ccc(N(CC(C)C)CC(C)C)c(NC(=O)Cc2ccc(C#N)cc2)c1` (single isomer, unassigned) [Example 1105, 3-(3-(2-(4-Cyanophenyl)acetamido)-4-(diisobutylamino)phenyl)pentanoic acid] belongs less than 5 nM; to `COCC(CC(=O)O)c1cc(F)c(N(CC(C)C)C2CCCCC2)c(NC(=O)Cc2ccc(Cl)cc2F)c1` (single isomer, unassigned) [Example 1175, 3-(3-(2-(4-chloro-2-fluorophenyl)acetamido)-4-(cyclohexyl(isobutyl)amino)-5-fluorophenyl)-4-methoxybutanoic acid], less than 50 nM.
The result for `CCOc1ccc(NC(=O)Nc2cc(C(CC)CC(=O)O)c(F)cc2N(CC(C)C)CC(C)C)cc1` (single isomer, unassigned) [Example 1133, 3-(4-(Diisobutylamino)-5-(3-(4-ethoxyphenyl)ureido)-2-fluorophenyl)pentanoic acid] reads less than 5 nM; that for `COCC(CC(=O)O)c1ccc(N(CC(C)C)C2CCOCC2)c(NC(=O)Nc2ccc(OC(F)(F)F)cc2)c1` (single isomer, unassigned) [Example 1218, 3-(4-(Isobutyl(tetrahydro-2H-pyran-4-yl)amino)-3-(3-(4-(trifluoromethoxy)phenyl)ureido)phenyl)-4-methoxybutanoic acid], greater than 50 nM.
To `CC(C)CN(c1ccc(C(CC(=O)O)C2CC2)cc1NC(=O)Nc1cncnc1)C1CCOCC1` (single isomer, unassigned) [Example 1207 Enantiomer 2, 3-Cyclopropyl-3-(4-(isobutyl(tetrahydro-2H-pyran-4-yl)amino)-3-(3-(pyrimidin-5-yl)ureido)phenyl)propanoic acid] belongs greater than 50 nM; to `CC(CC(=O)O)c1ccc(N(CC(C)(C)O)C2CCOCC2)c(Nc2ccc(Cl)cc2)c1` (single isomer, unassigned) [Example 193, 3-(3-((4-chlorophenyl)amino)-4-((2-hydroxy-2-methylpropyl)(tetrahydro-2H-pyran-4-yl)amino)phenyl)butanoic acid], less than 5 nM; to `CCN(c1ccc(C(CC(=O)O)c2ccccc2)cc1Nc1ccc2nc(C)sc2c1)C1CCOCC1` (single isomer, unassigned) [Example 589, 3-(4-(ethyl(tetrahydro-2H-pyran-4-yl)amino)-3-((2-methylbenzo[d]thiazol-6-yl)amino)phenyl)-3-phenylpropanoic acid], greater than 50 nM.
In the case of `COCC(CC(=O)O)c1ccc(N(CC(C)C)C2CCCCC2)c(NC(=O)Nc2ccccc2F)c1` (single isomer, unassigned) [1125 E2], the IC50 was less than 5 nM.
As to `COCC(CC(=O)O)c1ccc(N(CC(C)C)C2CCCCC2)c(NC(=O)Cc2ccc(C)cc2)c1` (single isomer, unassigned) [Example 1240, 3-(4-(Cyclohexyl(isobutyl)amino)-3-(2-(p-tolyl)acetamido)phenyl)-4-methoxybutanoic acid], the IC50 is less than 50 nM.
Take `Cc1nc2ccc(Nc3cc(C(CC(=O)O)c4ccccc4)cc(F)c3N(CC(C)C)CC(C)C)cc2s1` (single isomer, unassigned) [Example 132, 3-(4-(diisobutylamino)-3-fluoro-5-((2-methylbenzo[d]thiazol-6-yl)amino)phenyl)-3-phenylpropanoic acid]: the IC50 was greater than 50 nM.
To `CCC(CC(=O)O)c1cc(NC(=O)Nc2cnc(OC)nc2)c(N(CC(C)C)CC(C)C)cc1F` (single isomer, unassigned) [Example 1142, 3-(4-(Diisobutylamino)-2-fluoro-5-(3-(2-methoxypyrimidin-5-yl)ureido)phenyl)pentanoic acid] belongs less than 5 nM; to `COc1ncc(Nc2cc(C(C)CC(=O)O)ccc2N2CCC[C@H]2C(C)(C)O)cn1` (single isomer, unassigned) [Example 805], greater than 50 nM.
`CCC(CC(=O)O)c1cc(NC(=O)Nc2ccc(C)cc2)c(N(CC(C)C)CC(C)C)cc1F` (single isomer, unassigned) [Example 1130, 3-(4-(Diisobutylamino)-2-fluoro-5-(3-(p-tolyl)ureido)phenyl)pentanoic acid] had a half-inhibitory concentration (IC50) of less than 5 nM.
For `CCOc1ncc(Nc2cc(C(C)CC(=O)O)ccc2N2C[C@@H](C)O[C@@H](C)C2)cn1` (single isomer, unassigned) [Example 748], the IC50 is greater than 50 nM.
`CCN(c1ccc(C(CC(=O)O)c2ccccc2)cc1Nc1ccc(C#N)cc1)C1CCOCC1` (single isomer, unassigned) [Example 591, 3-(3-((4-cyanophenyl)amino)-4-(ethyl(tetrahydro-2H-pyran-4-yl)amino)phenyl)-3-phenylpropanoic acid] came in with a half-inhibitory concentration (IC50) of less than 5 nM.
`CCC(CC(=O)O)c1ccc(N2CCC[C@H]2C(C)(C)O)c(Nc2ccc(OCC3CC3)cc2)c1` (single isomer, unassigned) [Example 834] yielded a half-maximal inhibitory concentration (IC50) greater than 50 nM.
Regarding `COCC(CC(=O)O)c1ccc(N(CC2CC2)C2CCOCC2)c(NC(=O)Nc2ccc(C)cc2)c1` (single isomer, unassigned) [Example 677, 3-(4-((Cyclopropylmethyl)(tetrahydro-2H-pyran-4-yl)amino)-3-(3-(p-tolyl)ureido)phenyl)-4-methoxybutanoic acid], the 50% inhibitory concentration (IC50) is greater than 50 nM.
Turning to `CCC(CC(=O)O)c1cc(F)c(N(CC(C)C)CC(C)C)c(Nc2ccnc(N3CCOCC3)n2)c1` (single isomer, unassigned) [Example 121, 3-(4-(diisobutylamino)-3-fluoro-5-((2-morpholinopyrimidin-4-yl)amino)phenyl) pentanoic acid], the 50% inhibitory concentration (IC50) was greater than 50 nM.
`CC(CC(=O)O)c1ccc(N2C[C@@H](C)O[C@@H](C)C2)c(Nc2ccc(C#N)cc2)c1` (single isomer, unassigned) [Example 743]: the IC50 is greater than 50 nM.
In the case of `CCC(CC(=O)O)c1ccc(N2CCC[C@@H]2COC)c(NC(=O)Cc2ccc(C)cc2)c1` (single isomer, unassigned) [Example 1145], the half-maximal inhibitory concentration (IC50) was greater than 50 nM.
To `CCOc1ccc(CC(=O)Nc2cc(C(COC)CC(=O)O)cc(F)c2N(CC(C)C)CC(C)C)cc1` (single isomer, unassigned) [Example 1193, 3-(4-(Diisobutylamino)-3-(2-(4-ethoxyphenyl)acetamido)-5-fluorophenyl)-4-methoxybutanoic acid] belongs less than 50 nM; to `CCC(CC(=O)O)c1ccc(N(CC(C)C)C2CCCCC2)c(NC(=O)Cc2ccc(C)cc2)c1` (racemic) [Example 1084], less than 5 nM; to `CCOc1ccc(NC(=O)Nc2cc(C(CC)CC(=O)O)c(F)cc2N(CC(C)C)CC(C)C)c(F)c1` (single isomer, unassigned) [Example 1139, 3-(4-(Diisobutylamino)-5-(3-(4-ethoxy-2-fluorophenyl)ureido)-2-fluorophenyl) pentanoic acid], less than 5 nM.
To `CCc1ccc(Nc2cc(C(CC)CC(=O)O)cc(F)c2N(CC(C)C)CC(C)C)cc1` (single isomer, unassigned) [Example 112, 3-(4-(diisobutylamino)-3-((4-ethylphenyl)amino)-5-fluorophenyl)pentanoic acid] belongs less than 50 nM; to `COCC(CC(=O)O)c1cc(F)c(N(CC(C)C)C2CCCCC2)c(NC(=O)Nc2ccc(Cl)cc2F)c1` (single isomer, unassigned) [Example 1164, 3-(3-(3-(4-chloro-2-fluorophenyl)ureido)-4-(cyclohexyl(isobutyl)amino)-5-fluorophenyl)-4-methoxybutanoic acid], less than 5 nM.

In general, IC50 refers to the concentration that inhibits the measured activity by half. High values mean weaker potency, low ones greater potency.
